In data set [1] the target is T1, human serum albumin (HSA) (Homo sapiens, UniProt P02768). The experiment in a line: HSA binding of reference substances from literature (HPAC calibration). Conditions: logarithmic value of HSA binding values. The method, then: HSA binding of the PSMA-addressing ligands by HPAC was determined according to a previously published procedure via HPLC. […] Mobile phase A was a freshly prepared 50 mM aqueous solution of NH4OAc (pH 6.9) and mobile phase B was isopropanol (HPLC grade, VWR). The applied gradient for all experiments was 100% A (0 to 3 min), followed by 80% A (3 to 40 min). […] (12,13). All substances were dissolved in a 1:1 mixture (v/v) of isopropanol and a 50 mM aqueous solution of NH4OAc (pH 6.9) with a final concentration of 0.5 mg/mL. Non-linear regression was established with the OriginPro 2016G software (Northampton, United States).
T1 sequence (P02768 25-609): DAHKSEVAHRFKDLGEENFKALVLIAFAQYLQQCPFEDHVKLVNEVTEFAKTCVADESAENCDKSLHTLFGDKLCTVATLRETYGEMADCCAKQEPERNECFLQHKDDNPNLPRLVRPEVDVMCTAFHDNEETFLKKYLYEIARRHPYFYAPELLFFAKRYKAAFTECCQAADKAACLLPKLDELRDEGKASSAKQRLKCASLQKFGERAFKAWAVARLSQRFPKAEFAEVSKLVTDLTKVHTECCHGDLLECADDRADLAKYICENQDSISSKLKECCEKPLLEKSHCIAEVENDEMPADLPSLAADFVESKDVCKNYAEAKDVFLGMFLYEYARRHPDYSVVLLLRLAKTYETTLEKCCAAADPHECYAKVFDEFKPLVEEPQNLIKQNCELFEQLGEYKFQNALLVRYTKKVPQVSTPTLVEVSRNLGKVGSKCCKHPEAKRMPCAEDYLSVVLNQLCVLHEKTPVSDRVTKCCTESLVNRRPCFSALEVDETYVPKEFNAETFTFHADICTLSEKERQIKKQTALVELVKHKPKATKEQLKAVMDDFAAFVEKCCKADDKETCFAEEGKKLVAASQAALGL

The target in data set [2] is T1, human serum albumin (HSA). The settings on record: HSA binding values obtained from literature; cited from earlier work.
Data set [3] deals with T2, PSMA (Homo sapiens, UniProt Q04609).
T2 construct: host or cells: LNCaP cells
T2 sequence (Q04609 whole entry): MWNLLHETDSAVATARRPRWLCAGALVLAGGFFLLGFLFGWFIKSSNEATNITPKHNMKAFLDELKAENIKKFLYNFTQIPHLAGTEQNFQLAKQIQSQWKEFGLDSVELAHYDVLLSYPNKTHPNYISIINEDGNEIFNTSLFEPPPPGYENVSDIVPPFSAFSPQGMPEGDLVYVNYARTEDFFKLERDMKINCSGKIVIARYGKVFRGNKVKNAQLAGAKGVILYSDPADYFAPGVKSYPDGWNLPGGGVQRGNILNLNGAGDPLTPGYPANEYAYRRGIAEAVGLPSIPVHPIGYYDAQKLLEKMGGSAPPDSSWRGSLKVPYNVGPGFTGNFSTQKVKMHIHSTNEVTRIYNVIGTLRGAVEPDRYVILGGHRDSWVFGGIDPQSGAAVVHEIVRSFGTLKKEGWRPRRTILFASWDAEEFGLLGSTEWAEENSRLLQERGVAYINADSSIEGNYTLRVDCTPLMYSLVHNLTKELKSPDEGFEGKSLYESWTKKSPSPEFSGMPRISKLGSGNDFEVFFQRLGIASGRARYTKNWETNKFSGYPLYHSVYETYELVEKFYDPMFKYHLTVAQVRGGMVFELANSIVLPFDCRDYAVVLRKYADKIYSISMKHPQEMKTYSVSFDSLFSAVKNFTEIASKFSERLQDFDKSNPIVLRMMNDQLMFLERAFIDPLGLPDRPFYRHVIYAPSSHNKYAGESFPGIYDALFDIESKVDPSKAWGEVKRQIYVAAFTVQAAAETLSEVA
As to the kind of experiment: PSMA affinity (IC50) on LNCaP cells, competition with [125I]I-BA-KuE. The data set is classed as binding. The method, then: A mixture of trypsin and EDTA (0.05%, 0.02%) in PBS (Biochrom GmbH, Berlin, Germany) was used to harvest cells. Cells were counted with a Neubauer hemocytometer (Paul Marienfeld, Lauda-Königshofen, Germany).
In the case of metal-complexed ligands, the crude reaction mixture was diluted analogously, without further purification. Cells were harvested 24±2 hours prior to the experiment and seeded in 24-well plates (1.5×10^5 cells in 1 mL/well). After removal of the culture medium, the cells were carefully washed with 500 μL of HBSS (1% BSA) and left 15 min on ice for equilibration in 200 μL HBSS (1% BSA). […] For each concentration, the experiment was performed in triplicate. After incubation on ice for 60 min, the experiment was terminated by removal of the medium and consecutive rinsing with 200 μL of HBSS (1% BSA). The media of both steps were combined in one fraction and represent the amount of free radioligand. Afterwards, the cells were lysed with 250 μL of NaOH (1 M in H2O) for at least 15 min. After a washing step with NaOH (250 μL, 1 M in H2O), both fractions, representing the amount of bound ligand, were united. Quantification of all collected fractions was accomplished in a γ-counter. IC50 values were calculated using GraphPad PRISM software (GraphPad Software Inc., La Jolla, United States). The whole PSMA-affinity determination was carried out at least three times per ligand.

Data set [4] in a line: n-octanol-water partition coefficient (log D7.4). The data set is classed as physicochemical. The method, then:
In the development process of alternative SiFA-analogs, the influence of the substitution pattern at the aromatic moiety on lipophilicity is of particular importance. […] Assuming to observe a better differentiation in properties of the various prosthetic groups, investigations were conducted on small model peptides. Corresponding log D7.4-values (n≥8) are depicted in FIG. 3.
Approximately 1 MBq of the [^177Lu]Lu-labeled tracer or 0.5 MBq of the [^18F]F-labeled tracer was dissolved in 1 mL of n-octanol/PBS (v/v=1:1) in a reaction vial (1.5 mL). After vigorous mixing of the suspension for 3 min at rt, the vial was centrifuged at 15000 g for 5 min (Biofuge 15, Heraus Sepatech, Osterode, Germany) and 100 μL aliquots of both layers were measured in a γ-counter. The experiment was repeated (n≥6).

Data set [5] deals with T1, human serum albumin (HSA). The experiment in a line: Human serum albumin (HSA) binding by high performance affinity chromatography (HPAC). The data set is classed as in vitro ADME. Conditions: radiohybrid SSTR ligands, Table 4. On the procedure:
Investigations about the binding strength of the SiFA-MPs to human serum albumin (HSA) were conducted using high performance affinity chromatography (HPAC). The corresponding gold-standards ((4-SiFA)Bz-MPs) display—as expected from published as well as internal data—a quite strong HSA binding. This is associated with a comparably slow and unfavored blood clearance in vivo.

A short description of data set [6]: Biodistribution in LNCaP tumor-bearing male CB17-SCID mice. The data set is classed as in vivo. Conditions: 1 h p.i. The text has this:
Data expressed as percentage of the injected dose per gram (% ID/g), mean±standard deviation. Data of [18F]F, ^natGa-rhPSMA-7.3 were previously published by our group. (2)
Mice were used for experiments when tumors had grown to a diameter of 2-6 mm (4-20 weeks after inoculation).
Results are all decay-corrected and given in % injected dose per gram of tissue (% ID/g).

The conditions of data set [7]: 1 h p.i.; previously published data; cited from earlier work.

The structures appear in SMILES notation. Read-outs that look alike come from different tables or passages of the source.

This is an account of results in patent publication US20260027244A1, “SILICON-BASED FLUORIDE ACCEPTOR GROUPS FOR RADIOPHARMACEUTICALS” (Technische Universität München, priority 2022, published 2026).

Take `Nc1ccccc1` [Aniline]: the “Log K HSA” value in data set [1] is on record as −0.79. Moreover, the “lit. HSA [%]” value in data set [2] is given as 14.06%.

Consider `O=C(O)c1ccccc1` [Benzoic Acid], for which the “lit. HSA [%]” value in data set [2] is listed as 34.27%.

For `CC(C)(C)[Si](F)(c1ccc(C(=O)NCCCC[C@H](NC(=O)N[C@@H](CCC(=O)O)C(=O)O)C(=O)O)cc1)C(C)(C)C` [Entry 1], the IC50 (in general, the midpoint of a concentration-inhibition curve) in data set [3] was 327 ± 73 nM. In data set [4] (pH 7.4), the “logD7.4 (n = 6)” value is −1.95 ± 0.09.

Take `C[C@@H](O)[C@H](NC(=O)[C@@H]1CSSC[C@H](NC(=O)[C@@H](Cc2ccccc2)NC(=O)CN2CCN(CC(=O)O)CCN(CC(=O)NCCNC(=O)c3cc(C(=O)O)cc([Si](F)(C(C)(C)C)C(C)(C)C)c3)CCN(CC(=O)O)CC2)C(=O)N[C@@H](Cc2ccc(O)cc2)C(=O)N[C@H](Cc2c[nH]c3ccccc23)C(=O)N[C@@H](CCCCN)C(=O)N[C@@H]([C@@H](C)O)C(=O)N1)C(=O)O` [Entry 4, ^natGa-(5-SiFA)Ip-EDA-DOTATATE, metal not drawn]: the “HSA binding (HPAC) [%]” value in data set [5] is given as 97.4%. Besides, the “logD7.4 (n = 6)” value in data set [4] (18F-labeled compound, SSTR ligands) was −0.67 ± 0.03.

Regarding `COc1ccc(Cl)cc1C(=O)NCCc1ccc(S(=O)(=O)NC(=O)NC2CCCCC2)cc1` [Glibenclamide], the “Log K HSA” value in data set [1] is on record as 1.69. The “lit. HSA [%]” value in data set [2] was 99.00%.

For the molecule `CCCC[C@@H](C(=O)N[C@@H](CC(=O)O)C(=O)N[C@@H](Cc1cccc2ccccc12)C(N)=O)N(C)C(=O)[C@H](Cc1c[nH]c2ccccc12)NC(=O)CNC(=O)[C@H](Cc1ccc(O)cc1)NC(=O)[C@H](C)NC(=O)[C@@H](CCC(=O)O)NC(=O)CN1CCN(CC(=O)O)CCN(CC(=O)O)CCN(CC(=O)O)CC1` [Lu-DOTA-MGS5], the log distribution coefficient (logD) (in general, the decadic logarithm of the distribution of all forms, ionised or not, between an organic phase and buffer at a given pH) in data set [4] (pH 7.4) was -2.25.

For `CC(C)(C)[Si](F)(c1cccc(C(=O)NCCCC[C@H](NC(=O)N[C@@H](CCC(=O)O)C(=O)O)C(=O)O)c1)C(C)(C)C` [PSMA-2], the increase in affinity result in data set [3] (shift of silyl group from para (PSMA-1) to meta position) is “more than 20 fold”.

`CC(C)(C)[Si](F)(c1cc(C(=O)O)cc(C(=O)NCCCC[C@H](NC(=O)N[C@@H](CCC(=O)O)C(=O)O)C(=O)O)c1)C(C)(C)C` [PSMA-3]: the “further improvement of affinity, factor” value in data set [3] (attaching a carboxylic acid, compared to PSMA-2) is “two”. Further, in data set [6], the accumulation in intestine is 17.7±1.6 % ID/g, the accumulation in liver came out at 7.2±4.8 % ID/g, the blood value stood at 0.55 % ID/g and the bone uptake amounted to 1.16±0.22 % ID/g. The same molecule gave a kidney value in data set [6] of 67.1±13.9 % ID/g.

As for `Oc1ccccc1` [Phenol], in data set [1], the “Log K HSA” value was −0.59. Moreover, the “lit. HSA [%]” value in data set [2] is given as 20.69%.

Regarding `CCCN(CCC)S(=O)(=O)c1ccc(C(=O)O)cc1` [Probenecid], in data set [2], the “lit. HSA [%]” value is 95.00%.

In the case of `CC(C)(C)[Si](F)(c1ccc(C(=O)NC[C@@H](NC(=O)CC[C@@H](C(=O)O)N2CCN(CC(=O)O)CCN(CC(=O)O)CCN(CC(=O)O)CC2)C(=O)N[C@H](CCCCC(=O)NCCC(=O)NCCC[C@@H](NC(=O)CC[C@H](NC(=O)N[C@@H](CCC(=O)O)C(=O)O)C(=O)O)C(=O)O)C(=O)O)cc1)C(C)(C)C` [[^18F]F, ^natGa-rhPSMA-7.3, metal not drawn], in data set [7], the blood value is reported as 0.96 % ID/g and the bone uptake is on record as 0.38±0.32 % ID/g.
